Data taken from PubChem BioAssay (NCI).
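The compound was tested at five concentrations on cells cultured in 96-well plates, with a 48-hour exposure period. GI50 is the concentration that inhibits growth by half. TGI denotes the concentration required for complete inhibition of growth.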

Assays:
Experiment in all cases: NCI tumour cell line growth inhibition, 48 h
786-0 renal = test system: 786-0 renal
A498 renal = test system: A498 renal
A549 NSCLC = test system: A549 NSCLC
ACHN renal = test system: ACHN renal
BT-549 breast = test system: BT-549 breast
CCRF-CEM leukemia = test system: CCRF-CEM leukemia
COLO 205 colon = test system: COLO 205 colon
DU-145 prostate = test system: DU-145 prostate
EKVX NSCLC = test system: EKVX NSCLC
HCC-2998 colon = test system: HCC-2998 colon
HCT-15 colon = test system: HCT-15 colon
HL-60(TB) leukemia = test system: HL-60(TB) leukemia
HOP-62 NSCLC = test system: HOP-62 NSCLC
HOP-92 NSCLC = test system: HOP-92 NSCLC
HS 578T breast = test system: HS 578T breast
HT29 colon = test system: HT29 colon
IGROV1 ovarian = test system: IGROV1 ovarian
K-562 leukemia = test system: K-562 leukemia
KM12 colon = test system: KM12 colon
LOX IMVI melanoma = test system: LOX IMVI melanoma
M14 melanoma = test system: M14 melanoma
MALME-3M melanoma = test system: MALME-3M melanoma
MDA-MB-231 breast = test system: MDA-MB-231 breast
MDA-MB-435 = test system: MDA-MB-435
MOLT-4 leukemia = test system: MOLT-4 leukemia
NCI-H226 lung = test system: NCI-H226 lung
NCI-H23 lung = test system: NCI-H23 lung
NCI-H460 lung = test system: NCI-H460 lung
NCI-H522 lung = test system: NCI-H522 lung
NCI/ADR-RES ovarian = test system: NCI/ADR-RES ovarian
OVCAR-3 ovarian = test system: OVCAR-3 ovarian
OVCAR-4 ovarian = test system: OVCAR-4 ovarian
OVCAR-5 ovarian = test system: OVCAR-5 ovarian
OVCAR-8 ovarian = test system: OVCAR-8 ovarian
PC-3 prostate = test system: PC-3 prostate
RPMI-8226 leukemia = test system: RPMI-8226 leukemia
RXF 393 renal = test system: RXF 393 renal
SF-268 CNS = test system: SF-268 CNS
SF-295 CNS = test system: SF-295 CNS
SF-539 CNS = test system: SF-539 CNS
SK-MEL-2 melanoma = test system: SK-MEL-2 melanoma
SK-MEL-28 melanoma = test system: SK-MEL-28 melanoma
SK-MEL-5 melanoma = test system: SK-MEL-5 melanoma
SK-OV-3 ovarian = test system: SK-OV-3 ovarian
SN12C renal = test system: SN12C renal
SNB-19 CNS = test system: SNB-19 CNS
SNB-75 CNS = test system: SNB-75 CNS
SR leukemia = test system: SR leukemia
SW-620 colon = test system: SW-620 colon
T-47D breast = test system: T-47D breast
TK-10 renal = test system: TK-10 renal
U251 CNS = test system: U251 CNS
UACC-257 melanoma = test system: UACC-257 melanoma
UACC-62 melanoma = test system: UACC-62 melanoma
UO-31 renal = test system: UO-31 renal

Structure (SMILES): C=C1C(=O)O[C@H]2[C@H]1CC/C(COC(=O)CCCCCCCCC(=O)OC/C1=C/CC[C@@]3(C)O[C@H]3[C@H]3OC(=O)C(=C)[C@@H]3CC1)=C\CC[C@@]1(C)O[C@@H]21
- GI50 (786-0 renal): 1.75 µM
- TGI (786-0 renal): 3.41 µM
- GI50 (A498 renal): 5.82 µM
- TGI (A498 renal): 18 µM
- GI50 (A549 NSCLC): 6.63 µM
- TGI (A549 NSCLC): 22.1 µM
- GI50 (ACHN renal): 1.8 µM
- TGI (ACHN renal): 3.55 µM
- GI50 (BT-549 breast): 1.54 µM
- TGI (BT-549 breast): 3.22 µM
- GI50 (CCRF-CEM leukemia): 2.02 µM
- TGI (CCRF-CEM leukemia): 11.8 µM
- GI50 (COLO 205 colon): 1.89 µM
- TGI (COLO 205 colon): 4.15 µM
- GI50 (DU-145 prostate): 2.03 µM
- TGI (DU-145 prostate): 4.2 µM
- GI50 (EKVX NSCLC): 1.95 µM
- TGI (EKVX NSCLC): 4.29 µM
- GI50 (HCC-2998 colon): 1.9 µM
- TGI (HCC-2998 colon): 3.58 µM
- GI50 (HCT-15 colon): 1.91 µM
- TGI (HCT-15 colon): 4.47 µM
- GI50 (HL-60(TB) leukemia): 2.05 µM
- TGI (HL-60(TB) leukemia): 8.26 µM
- GI50 (HOP-62 NSCLC): 2.03 µM
- TGI (HOP-62 NSCLC): 4.65 µM
- GI50 (HOP-92 NSCLC): 1.94 µM
- TGI (HOP-92 NSCLC): 4.38 µM
- GI50 (HS 578T breast): 2.91 µM
- TGI (HS 578T breast): 9.88 µM
- GI50 (HT29 colon): 2.08 µM
- TGI (HT29 colon): 4.12 µM
- GI50 (IGROV1 ovarian): 1.97 µM
- TGI (IGROV1 ovarian): 4.24 µM
- GI50 (K-562 leukemia): 2.6 µM
- TGI (K-562 leukemia): 9.7 µM
- GI50 (KM12 colon): 2.13 µM
- TGI (KM12 colon): 4.68 µM
- GI50 (LOX IMVI melanoma): 1.62 µM
- TGI (LOX IMVI melanoma): 3.08 µM
- GI50 (M14 melanoma): 1.63 µM
- TGI (M14 melanoma): 3.41 µM
- GI50 (MALME-3M melanoma): 1.84 µM
- TGI (MALME-3M melanoma): 3.97 µM
- GI50 (MDA-MB-231 breast): 1.92 µM
- TGI (MDA-MB-231 breast): 3.79 µM
- GI50 (MDA-MB-435): 2.02 µM
- TGI (MDA-MB-435): 4.59 µM
- GI50 (MOLT-4 leukemia): 2.58 µM
- TGI (MOLT-4 leukemia): 13.7 µM
- GI50 (NCI-H226 lung): 2.75 µM
- TGI (NCI-H226 lung): 7.24 µM
- GI50 (NCI-H23 lung): 2 µM
- TGI (NCI-H23 lung): 4.25 µM
- GI50 (NCI-H460 lung): 2.14 µM
- TGI (NCI-H460 lung): 4.4 µM
- GI50 (NCI-H522 lung): 2.12 µM
- TGI (NCI-H522 lung): 4.04 µM
- GI50 (NCI/ADR-RES ovarian): 3.14 µM
- TGI (NCI/ADR-RES ovarian): 13.5 µM
- GI50 (OVCAR-3 ovarian): 1.67 µM
- TGI (OVCAR-3 ovarian): 3.11 µM
- GI50 (OVCAR-4 ovarian): 2.46 µM
- TGI (OVCAR-4 ovarian): 7.55 µM
- GI50 (OVCAR-5 ovarian): 2.26 µM
- TGI (OVCAR-5 ovarian): 5.56 µM
- GI50 (OVCAR-8 ovarian): 3.07 µM
- TGI (OVCAR-8 ovarian): 8.1 µM
- GI50 (PC-3 prostate): 1.99 µM
- TGI (PC-3 prostate): 4.35 µM
- GI50 (RPMI-8226 leukemia): 2.92 µM
- TGI (RPMI-8226 leukemia): 8.29 µM
- GI50 (RXF 393 renal): 1.86 µM
- TGI (RXF 393 renal): 3.42 µM
- GI50 (SF-268 CNS): 1.86 µM
- TGI (SF-268 CNS): 3.84 µM
- GI50 (SF-295 CNS): 2.56 µM
- TGI (SF-295 CNS): 8.09 µM
- GI50 (SF-539 CNS): 1.9 µM
- TGI (SF-539 CNS): 3.95 µM
- GI50 (SK-MEL-2 melanoma): 2.8 µM
- TGI (SK-MEL-2 melanoma): 8.2 µM
- GI50 (SK-MEL-28 melanoma): 2.34 µM
- TGI (SK-MEL-28 melanoma): 6.04 µM
- GI50 (SK-MEL-5 melanoma): 1.91 µM
- TGI (SK-MEL-5 melanoma): 3.48 µM
- GI50 (SK-OV-3 ovarian): 12 µM
- TGI (SK-OV-3 ovarian): 25.2 µM
- GI50 (SN12C renal): 2.26 µM
- TGI (SN12C renal): 5.32 µM
- GI50 (SNB-19 CNS): 2.45 µM
- TGI (SNB-19 CNS): 6.51 µM
- GI50 (SNB-75 CNS): 4.8 µM
- TGI (SNB-75 CNS): 19.6 µM
- GI50 (SR leukemia): 1.39 µM
- TGI (SR leukemia): 11 µM
- GI50 (SW-620 colon): 1.87 µM
- TGI (SW-620 colon): 3.87 µM
- GI50 (T-47D breast): 2.16 µM
- TGI (T-47D breast): 6.2 µM
- GI50 (TK-10 renal): 2.47 µM
- TGI (TK-10 renal): 4.74 µM
- GI50 (U251 CNS): 1.96 µM
- TGI (U251 CNS): 3.82 µM
- GI50 (UACC-257 melanoma): 2.25 µM
- TGI (UACC-257 melanoma): 4.41 µM
- GI50 (UACC-62 melanoma): 1.99 µM
- TGI (UACC-62 melanoma): 4.25 µM
- GI50 (UO-31 renal): 1.47 µM
- TGI (UO-31 renal): 2.95 µM
